Data: the NIST ThermoML archive (doi:10.1016/j.fluid.2015.07.012)

Experiment: xn = mol fraction of the nth substance listed
Settings: Liquid; for viscosity: Capillary tube (Ostwald / Ubbelohde) method; for mass density: Vibrating tube method

CO [methanol] + O
Settings	mass density, 10000 kPa [kg/m3]	mass density, 20000 kPa [kg/m3]	mass density, 30000 kPa [kg/m3]	mass density, 40000 kPa [kg/m3]	viscosity, 10000 kPa [mPa·s]	viscosity, 20000 kPa [mPa·s]	viscosity, 30000 kPa [mPa·s]	viscosity, 40000 kPa [mPa·s]
350.7 K, x1 = 0.1	945.55	949.82	954.11	958.39	0.448	0.454	0.458	0.473
350.7 K, x1 = 0.2	917.41	921.49	927.03	931.54	0.503	0.514	0.526	0.543
350.7 K, x1 = 0.3	889.97	895.56	901.14	906.05	0.514	0.528	0.542	0.558
350.7 K, x1 = 0.4	865.13	870.55	876.99	882.71	0.512	0.529	0.544	0.565
350.7 K, x1 = 0.6	819.84	827.75	835.46	842.38	0.449	0.47	0.494	0.519
350.7 K, x1 = 0.8	780.91	789.25	797.6	805.96	0.379	0.4	0.416	0.443
350.7 K, x1 = 1	–	–	–	–	0.298	0.313	0.331	0.351
373.2 K, x1 = 0.1	928.71	932.78	939.53	943.52	0.33	0.337	0.339	0.347
373.2 K, x1 = 0.2	900.41	904.78	911.46	914.74	0.358	0.368	0.372	0.382
373.2 K, x1 = 0.3	870.61	877.31	883.51	889.33	0.364	0.378	0.385	0.398
373.2 K, x1 = 0.4	845.4	851.97	858.91	864.81	0.36	0.375	0.382	0.399
373.2 K, x1 = 0.6	799.33	807.98	817.6	823.64	0.324	0.342	0.353	0.368
373.2 K, x1 = 0.8	758.8	770.24	780.53	789.08	0.276	0.294	0.307	0.326
373.2 K, x1 = 1	725.29	737.85	748.83	758.66	0.227	0.25	0.259	0.275
476.2 K, x1 = 0.1	822.65	831.4	838.61	845.82	0.141	0.144	0.148	0.151
476.2 K, x1 = 0.2	781.47	792.25	802.47	810.27	0.14	0.143	0.15	0.152
476.2 K, x1 = 0.3	746.74	760.72	772.18	780.67	0.136	0.144	0.146	0.152
476.2 K, x1 = 0.4	714.67	730.97	744.11	754.89	0.129	0.138	0.144	0.149
476.2 K, x1 = 0.6	664.45	685.36	703.08	715.13	0.115	0.123	0.131	0.14
476.2 K, x1 = 0.8	617.54	647.18	668.6	683.43	0.101	0.113	0.122	0.129
476.2 K, x1 = 1	576.84	612.56	636.82	655.67	0.088	0.1	0.109	0.116
